Data from US20100003217A1, “Compounds and Pharmaceutical Compositions for the Treatment of Viral Infections” (priority 2008, published 2010).
Several values for one entry are separate records, joined by “and”; a condition that tells them apart may be missing. Identical values can stand only once.

Test system: monkey primary hepatocytes
Assay: Metabolic disposition of [^14C]-Compound 1 and [^14C]-2′-C-methyl guanosine in monkey primary hepatocytes (incubation medium, cellular extracts, nucleotide levels)
Type: in vitro ADME, Cynomolgus monkey
Details: for AUC (area under the concentration-time curve) of Compound 7 levels: 0-24 h
Description: Primary hepatocytes: Freshly isolated cells from animal and human liver were obtained in suspension on ice. Cells were pelleted by centrifugation at 70-75×g (rat) or 95-90×g (monkey and human) and resuspended at 0.8 million cells per mL of platting medium (William's E supplemented with 5% FBS, 0.5% penicillin-streptomycin, 1% L-glutamine, 4 μg/mL insulin and 1 μM dexamethasone). Multi-well collagen I-coated plates (rat tail collagen type I; 12- or 6-well) were then seeded by addition of 1 mL (12-well; 0.8 million cells/well) or 2 mL (6-well; 1.6 million cells/well) of cell suspension. The plates were gently shaken to evenly distribute the cells and placed in an incubator at 37° C. for approximately 4 to 6 hours to allow cells to attach. Once cells were attached, the platting medium was removed and replaced with hepatocyte culture medium (William's E supplemented with penicillin-streptomycin, 1% L-glutamine, 1% insulin-transferrin-selenium and 0.1 μM dexamethasone). Cells were left overnight in an incubator at 37° C. to acclimatize to culture and the medium.
Hepatocyte incubations with radiolabeled Compound 1 and 2′-C-methyl guanosine, both labeled in the C-8 position of the guanine moiety, were conducted at a final volume of 2.0 mL hepatocyte culture medium/well ([…]). Culture medium from overnight incubation of cells was removed and replaced with fresh medium, pre-warmed to 37° C., containing 1 or 10 μM [^14C]-Compound 1 ([…]) or [^14C]-2′-C-methyl guanosine (127 DPM/μmol) from a stock solution in DMSO (final DMSO concentration was 0.1%) or 50% ethanol (final ethanol concentration was 0.2%). After 1, 4, 8 and 24 hours, 0.5-1.0 mL of incubation medium was removed and stored at −20° C. until analysis (described below). The remaining medium was discarded and cell monolayers were carefully washed two times with ice-cold PBS. Following the last wash, all PBS was carefully removed and 1.0 mL of extraction solution (ice-cold 70% methanol) added. Cells were scrapped off and suspended in the extraction solution, transferred to 2 mL polypropylene microfuge tubes and intracellular contents extracted overnight at −20° C.
Preliminary identification of putative metabolites was conducted by comparing the retention time of observed metabolites in incubation medium and cellular extracts with retention times obtained with chemically synthesized standards using the chromatography conditions described below. Further identification of 2′-C-methyl guanosine nucleotides (mono-, di- and triphosphate) was carried out by incubating cellular extract samples with alkaline phosphatase (10 units for 60 min at 37° C.) and comparing the HPLC retention times of the resulting nucleosides with that of authentic 2′-C-methyl guanosine.
Cellular extracts were prepared by centrifugation at 16,000 RCF using an Eppendorf microcentrifuge (Eppendorf, Model 5415D) for 10 min to remove cellular debris. An aliquot of 5-10 μL of the supernatant was added to 5 mL of EcoLite™ (MP, Irvine, Calif.) liquid scintillation cocktail and radioactivity measured by liquid scintillation counting (LSC) using a Beckman Coulter LS6500 multipurpose liquid scintillation counter (Beckman Instruments, Fullerton, Calif.). The remaining sample was then dried using a Labconco refrigerated centrivap concentrator (Labconco, Kansas City, Mo.). Dry extracts were reconstituted in 120 μL of HPLC-grade water and centrifuged at 16,000 RCF using an Eppendorf microcentrifuge for 10 min. Prior to HPLC analysis (described below), radioactivity of the concentrated extracts was measured by LSC using 5 μL aliquots. Extraction recovery was then determined by comparing total radioactivity in extracts before and after drying. The remaining extract was then analyzed by HPLC with online radioactivity detection using a Flow Scintillation Analyzer Radiomatic™ 515TR. Radioactivity in the separated components was quantified by integrating the peaks using Flo-One™ Software (Perkin Elmer Life Sciences). […]

[1] = monkey hepatocytes (Cy230, Cy234), 10 μM [^14C]-Compound 1, 1 h
[2] = monkey hepatocytes (Cy230, Cy234), 10 μM [^14C]-Compound 1, 8 h
[3] = monkey hepatocytes (Cy230, Cy234), 10 μM [^14C]-Compound 1, 24 h
[4] = monkey hepatocytes (Cy234), 10 μM [^14C]-Compound 1, 4 h
[5] = monkey hepatocytes Cy230, 10 μM [^14C]-2′-C-methyl guanosine, 0 h
[6] = monkey hepatocytes Cy230, 10 μM [^14C]-2′-C-methyl guanosine, 1 h
[7] = monkey hepatocytes Cy230, 10 μM [^14C]-2′-C-methyl guanosine, 8 h
[8] = monkey hepatocytes Cy230, 10 μM [^14C]-2′-C-methyl guanosine, 24 h
[9] = monkey hepatocytes Cy230, 10 μM [^14C]-Compound 1, 0 h
[10] = monkey hepatocytes Cy230, 10 μM [^14C]-Compound 1, 1 h
[11] = monkey hepatocytes Cy230, 10 μM [^14C]-Compound 1, 8 h
[12] = monkey hepatocytes Cy230, 10 μM [^14C]-Compound 1, 24 h
[13] = monkey hepatocytes Cy234, 10 μM [^14C]-2′-C-methyl guanosine, 0 h
[14] = monkey hepatocytes Cy234, 10 μM [^14C]-2′-C-methyl guanosine, 1 h
[15] = monkey hepatocytes Cy234, 10 μM [^14C]-2′-C-methyl guanosine, 4 h
[16] = monkey hepatocytes Cy234, 10 μM [^14C]-2′-C-methyl guanosine, 8 h
[17] = monkey hepatocytes Cy234, 10 μM [^14C]-2′-C-methyl guanosine, 24 h
[18] = monkey hepatocytes Cy234, 10 μM [^14C]-Compound 1, 0 h
[19] = monkey hepatocytes Cy234, 10 μM [^14C]-Compound 1, 1 h
[20] = monkey hepatocytes Cy234, 10 μM [^14C]-Compound 1, 8 h
[21] = monkey hepatocytes Cy234, 10 μM [^14C]-Compound 1, 24 h

Row | Structure (SMILES) | metabolites observed in cellular extracts (% of total radioactivity) [1] | metabolites observed in cellular extracts (% of total radioactivity) [2] | metabolites observed in cellular extracts (% of total radioactivity) [3] | 2′-C-methyl guanosine nucleotide levels in cellular extracts [4] | metabolites observed in cellular extracts (% of total radioactivity) [4] | 2′-C-methyl guanosine nucleotide levels in cellular extracts [5] | 2′-C-methyl guanosine nucleotide levels in cellular extracts [6] | Major metabolites observed in cellular extracts (% of total radioactivity) [6] | 2′-C-methyl guanosine nucleotide levels in cellular extracts [7] | Major metabolites observed in cellular extracts (% of total radioactivity) [7] | 2′-C-methyl guanosine nucleotide levels in cellular extracts [8] | Major metabolites observed in cellular extracts (% of total radioactivity) [8] | 2′-C-methyl guanosine nucleotide levels in cellular extracts [9] | 2′-C-methyl guanosine nucleotide levels in cellular extracts [10] | 2′-C-methyl guanosine nucleotide levels in cellular extracts [11] | 2′-C-methyl guanosine nucleotide levels in cellular extracts [12] | 2′-C-methyl guanosine nucleotide levels in cellular extracts [13] | 2′-C-methyl guanosine nucleotide levels in cellular extracts [14] | Major metabolites observed in cellular extracts (% of total radioactivity) [14] | 2′-C-methyl guanosine nucleotide levels in cellular extracts [15] | also measured
1 | C[C@@]1(O)[C@H](O)[C@@H](COP(=O)(O)OP(=O)(O)O)O[C@H]1n1cnc2c(=O)[nH]c(N)nc21 [Compound 6, [(2R)-2-methyl-β-D-ribofuranosyl]guanine 5′-diphosphate] | 9.25% and 9.65% | 13.8% and 14.9% | 18.5% and 16.0% | 44.5 pmol/million cells | 17.1% | 0 pmol/million cells | BLD (BLD = below limit of detection (0.02 pmol/million cells)) | BLD (BLD = below limit of detection (30 DPM)) | 2.07 pmol/million cells | 2.82 % of total radioactivity | 2.16 pmol/million cells | 8.41 % of total radioactivity | 0 pmol/million cells | 26.3 pmol/million cells | 153 pmol/million cells | 88.4 pmol/million cells | 0 pmol/million cells | 0.95 pmol/million cells | 2.19 % of total radioactivity | 5.30 pmol/million cells | Major metabolites observed in cellular extracts (% of total radioactivity) [15]: 6.51 % of total radioactivity; 2′-C-methyl guanosine nucleotide levels in cellular extracts [16]: 7.00 pmol/million cells; Major metabolites observed in cellular extracts (% of total radioactivity) [16]: 7.90 % of total radioactivity; 2′-C-methyl guanosine nucleotide levels in cellular extracts [17]: 15.0 pmol/million cells; Major metabolites observed in cellular extracts (% of total radioactivity) [17]: 14.1 % of total radioactivity; 2′-C-methyl guanosine nucleotide levels in cellular extracts [18]: 0 pmol/million cells; 2′-C-methyl guanosine nucleotide levels in cellular extracts [19]: 6.10 pmol/million cells; 2′-C-methyl guanosine nucleotide levels in cellular extracts [20]: 91.0 pmol/million cells; 2′-C-methyl guanosine nucleotide levels in cellular extracts [21]: 111 pmol/million cells
2 | C[C@@]1(O)[C@H](O)[C@@H](COP(=O)(O)OP(=O)(O)OP(=O)(O)O)O[C@H]1n1cnc2c(=O)[nH]c(N)nc21 [Compound 7, [(2R)-2-methyl-β-D-ribofuranosyl]guanine 5′-triphosphate] | 63.4% and 34.9% | 80.9% and 77.6% | 72.2% and 79.4% | 183 pmol/million cells | 70.3% | 0 pmol/million cells | 2.87 pmol/million cells | 3.63 % of total radioactivity | 14.58 pmol/million cells and 14.6 pmol/million cells | 19.9 % of total radioactivity | 6.85 pmol/million cells | 26.6 % of total radioactivity | 0 pmol/million cells | 180 pmol/million cells | 895 pmol/million cells | 344 pmol/million cells | 0 pmol/million cells | 4.00 pmol/million cells | 8.70 % of total radioactivity | 29.0 pmol/million cells | AUC (area under the concentration-time curve) of Compound 7 levels (monkey hepatocytes Cy230, 10 μM [^14C]-2′-C-methyl guanosine): 241 pmol * hr/million cells; AUC (area under the concentration-time curve) of Compound 7 levels (monkey hepatocytes Cy230, 10 μM [^14C]-Compound 1): 13765 pmol * hr/million cells; AUC (area under the concentration-time curve) of Compound 7 levels (monkey hepatocytes Cy234, 10 μM [^14C]-2′-C-methyl guanosine): 956 pmol * hr/million cells; Major metabolites observed in cellular extracts (% of total radioactivity) [15]: 35.6 % of total radioactivity; 2′-C-methyl guanosine nucleotide levels in cellular extracts [16]: 39.0 pmol/million cells; Major metabolites observed in cellular extracts (% of total radioactivity) [16]: 43.0 % of total radioactivity; 2′-C-methyl guanosine nucleotide levels in cellular extracts [17]: 57.0 pmol/million cells; Major metabolites observed in cellular extracts (% of total radioactivity) [17]: 51.8 % of total radioactivity; 2′-C-methyl guanosine nucleotide levels in cellular extracts [18]: 0 pmol/million cells; AUC (area under the concentration-time curve) of Compound 7 levels (monkey hepatocytes Cy234, 10 μM [^14C]-Compound 1): 9861 pmol * hr/million cells; 2′-C-methyl guanosine nucleotide levels in cellular extracts [19]: 22.0 pmol/million cells; 2′-C-methyl guanosine nucleotide levels in cellular extracts [20]: 476 pmol/million cells; 2′-C-methyl guanosine nucleotide levels in cellular extracts [21]: 552 pmol/million cells; Maximum Compound 7 levels (monkey hepatocytes, 10 μM [^14C]-2′-C-methyl guanosine, at 24 hours): 32 pmol/million cells; Compound 7 AUC0-24h (monkey hepatocytes, 10 μM [^14C]-Compound 1): 11,813 pmol*h/million cells; major intracellular metabolite, % of total intracellular radioactivity (monkey hepatocytes, 10 μM [^14C]-Compound 1, from 4-24 hours): > 70%; Compound 7 peak levels (monkey hepatocytes, 10 μM [^14C]-Compound 1, at 8 hours in one donor and at 24 hours in the second): 895 pmol/million cells and 552 pmol/million cells
